Measured values reported in the supplement of paper PMC10307832.

Tests used:
Test in all cases: relative viability (nuclei count vs DMSO), 5 days (fraction); higher = more cells survive
[1] = compound: O=c1ncccn1[C@@H]1O[C@H](CO)[C@@H](O)[C@H]1O [Zebularine] + CC(C)C[C@H](NC(=O)[C@H](Cc1ccccc1)NC(=O)c1cnccn1)B(O)O [Bortezomib] (partner 0.002 µM)
How it was run: (§1)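 Medians of duplicate plates are given as relative viability. That measure is the nuclei count in treated wells divided by the count in vehicle wells. Counts were taken on 4× images of lung cancer cell lines in 1536-well plates, 5 days after pin-tool dosing the day after seeding with one drug alone or a fixed anchor-drug dose plus five library-drug doses (not always all listed) in √10 steps.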

[2] = compound: CC(C)CCN1c2nc(Nc3cc(F)c(O)c(F)c3)ncc2N(C)C(=O)C1C [BI-D1870] + Cc1nc(NC(=O)N2CCC[C@H]2C(N)=O)sc1-c1ccnc(C(C)(C)C(F)(F)F)c1 [Alpelisib] (partner 2 µM)
How it was run: as §1

[3] = compound: CC(C)CCN1c2nc(Nc3cc(F)c(O)c(F)c3)ncc2N(C)C(=O)C1C [BI-D1870]
How it was run: (§2)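 A plate was accepted only when its control CV was below 25% and the cells had doubled at least once. Viability is defined from nuclear counts as treated wells divided by vehicle wells, with the median taken across plates. That median covers lung cancer cell lines grown in 1536-well plates, dosed by pinning at five √10-spaced library-drug concentrations, and counted in MetaXpress from 4× Hoechst images after 5 days.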

[4] = compound: O=c1ncccn1[C@@H]1O[C@H](CO)[C@@H](O)[C@H]1O [Zebularine]
How it was run: as §2

Row | Cell Line | relative viability ([1]; first compound 1 µM) | relative viability ([1]; first compound 3.162 µM) | relative viability ([1]; first compound 10 µM) | relative viability ([1]; first compound 31.62 µM) | relative viability ([1]; first compound 100 µM) | relative viability ([2]; first compound 0.04 µM) | relative viability ([2]; first compound 0.1265 µM) | relative viability ([2]; first compound 0.4 µM) | relative viability ([2]; first compound 1.265 µM) | relative viability ([2]; first compound 4 µM) | relative viability ([3]; 0.04 µM) | relative viability ([3]; 0.1265 µM) | relative viability ([3]; 0.4 µM) | relative viability ([3]; 1.265 µM) | relative viability ([3]; 4 µM) | relative viability ([4]; 1 µM) | relative viability ([4]; 3.162 µM) | relative viability ([4]; 10 µM) | relative viability ([4]; 31.62 µM) | relative viability ([4]; 100 µM)
1 | NCI-H1975 | 0.403 | 0.338 | 0.288 | 0.267 | 0.233 | 0.646 | 0.572 | 0.518 | 0.55 | 0.34 | 1.15 | 0.904 | 0.99 | 0.914 | 0.851 | 1 | 0.859 | 0.519 | 0.468 | 0.258
2 | CAL-12T | 1.22 | 1.01 |  | 0.68 | 0.483 | 1.53 | 1.14 | 1.11 | 1.05 | 0.793 | 1.14 | 0.87 | 0.946 | 0.97 | 0.682 | 1.03 | 0.871 | 0.793 | 0.993 | 0.671
3 | NCI-H1623 |  |  |  |  |  |  |  |  |  |  | 0.945 | 0.895 | 1.19 | 1.16 | 0.911 | 0.923 | 0.895 | 0.86 | 0.894 | 0.531
4 | HCC-44 | 0.95 | 0.868 | 0.483 | 0.827 | 0.251 | 0.911 | 0.817 | 0.846 | 0.695 | 0.595 | 1.04 | 0.876 | 0.989 | 1.07 | 1.03 | 1.05 | 1.02 | 0.701 | 0.843 | 0.44
5 | EKVX | 1.27 | 1.05 |  | 0.88 | 1.06 | 0.957 | 0.759 | 0.85 | 0.898 | 0.664 | 1.06 | 0.94 | 0.889 | 1.11 | 0.931 | 1.04 | 0.961 |  | 1.03 | 0.985
6 | NCI-H1944 |  |  |  |  |  | 0.907 | 0.803 | 0.817 | 0.927 | 0.861 | 1.12 | 0.919 | 0.907 | 1.03 | 0.941 | 0.995 | 1.02 | 0.788 | 0.947 | 0.718
7 | NCI-H358 |  |  |  |  |  | 0.964 | 0.745 | 0.852 | 0.663 | 0.415 | 1.07 | 0.834 | 0.803 | 0.916 | 0.775 | 0.884 | 0.951 | 0.596 | 0.491 | 0.346
8 | NCI-H1793 |  |  |  |  |  | 0.647 | 0.607 | 0.537 | 0.69 | 0.719 | 1.06 | 0.803 | 0.757 | 1.19 | 0.801 | 1.16 | 1 | 0.442 | 0.67 | 0.237
9 | ChaGo-K-1 | 1.27 | 0.982 | 0.558 | 0.678 | 0.284 |  |  |  |  |  | 1.05 | 0.991 | 0.9 | 0.962 | 0.868 | 1.03 | 0.97 | 0.525 | 0.317 | 0.244
10 | NCI-H2342 |  |  |  |  |  |  |  |  |  |  | 0.983 | 0.919 | 1 | 1.09 | 1.15 | 1.01 | 0.953 | 0.757 | 0.984 | 0.853
11 | NCI-H1650 | 0.226 | 0.191 |  | 0.2 | 0.199 |  |  |  |  |  | 0.9 | 0.765 | 1 | 0.96 | 0.807 | 1.03 | 0.904 | 0.766 | 1.15 | 0.727
12 | SW 900 |  |  |  |  |  |  |  |  |  |  | 1.03 | 0.95 | 0.864 | 1.02 | 0.894 | 1.04 | 0.839 | 0.661 | 0.843 | 0.651
13 | SK-MES-1 |  |  |  |  |  | 0.956 | 0.859 | 0.78 | 0.973 | 0.644 | 1.05 | 0.911 | 0.892 | 0.829 | 0.617 | 1.11 | 1.06 | 0.704 | 0.673 | 0.286
14 | NCI-H1648 |  |  |  |  |  |  |  |  |  |  | 0.877 | 0.777 | 0.729 | 0.89 | 0.869 | 1.16 | 1.06 | 0.563 | 0.668 | 0.708
15 | NCI-H522 |  |  |  |  |  |  |  |  |  |  | 0.974 | 1.15 | 1.04 | 1.08 | 0.841 | 0.9 | 1.08 | 0.87 | 0.928 | 0.847
16 | LK-2 |  |  |  |  |  | 1.22 | 1.11 | 1.11 | 1.32 | 0.608 | 1.14 | 1 | 1.28 | 1.21 | 0.973 | 1 | 1.03 | 0.556 | 0.544 | 0.392
17 | NCI-H1395 |  |  |  |  |  | 1.56 | 1.04 | 1.11 | 1.05 | 1.08 | 0.905 | 0.822 | 0.87 | 0.988 | 0.827 | 0.929 | 0.86 | 0.788 | 0.676 | 0.511
18 | A549 |  |  |  |  |  | 0.907 | 0.639 | 0.891 | 0.609 | 0.477 | 1.06 | 0.908 | 0.975 | 1.04 | 0.848 | 1.08 | 0.913 | 0.519 | 0.75 | 0.155
19 | NCI-H2170 |  |  |  |  |  | 0.867 | 0.705 | 0.818 | 0.751 | 0.772 | 1.06 | 0.925 | 0.961 | 0.949 | 0.843 | 1.1 | 1.01 | 0.933 | 0.975 | 0.693
